What was measured:
[1] = system: Jurkat NFκB-luciferase cells; test: Jurkat NFκB-Luciferase Assay; type: cell-based; conditions: Homo sapiens; Jurkat NFκB-luciferase cells activated with anti-CD3 antibody (OKT3), 2.5 hrs at 37° C.; geometric mean; read-out: DGK NFKb Luciferase EC50
Method: The activity of compounds was tested in a cell based NFκB reporter assay. Jurkat cells that are stably expressing a luciferase reporter construct under the transcriptional control of a NFκB reporter element were activated with an anti-CD3 antibody and luciferase levels were measured with a bioluminescence readout. An increase in the levels of bioluminescence was indicative of enhanced T-cell activation following DGKα inhibition by the compound.
Flat-bottom polystyrene plates (384-well, tissue culture treated) were coated overnight at 4° C. with 20 ul/well of a solution of phosphate-buffered saline supplemented with 5 ug/ml anti-CD3 antibody (clone OKT3, Biolegend). The day after, the excess antibody was washed out five times with 100 ul/well of assay medium (RPMI supplemented with 10% fetal bovine serum) using a Biotek EL406 instrument and leaving 20 ul of residual volume in each well. Jurkat NFκB-luciferase cells (Promega #) were harvested and diluted to 1 million cells/ml in assay medium. Sixty nanoliters of test compound dissolved in DMSO at various concentrations were dispensed into 384-well v-bottom polypropylene plates (Greiner) using a Labcyte Echo instrument. Thirty microliters of medium containing the Jurkat NFκB-luciferase cells were then dispensed using a Biotek MicroFlo instrument in each well of the compound-containing plate. The medium/cell/compound mixture was mixed with a Bravo instrument and 20 ul/well of the mixture was transferred to the anti-CD3-coated plate. The assay mixture was then incubated for 2.5 hrs at 37° C. followed by equilibration at 25° C. for 30 min. Forty microliters of One-Glo Ex (Promega) was then added to the assay mixture and luciferase activity was read on a Envision plate reader 7 minutes later.
Bioluminescence data were normalized based on maximum enhancement (1 micromolar of compound) and on basal activation (DMSO) controls. Least squares curve fittings were performed using a four-parameter variable slope nonlinear regression model. EC50 is defined as the concentration of compound required to produce 50% of maximum NFκB luciferase signal. EC50 values from multiple experiments were averaged by geometric mean and the standard deviation was calculated.

human DGKα = human DGKα (Homo sapiens (Human), UniProt P23743); test: DGKα Biochemical Activity Assay (ADP-Glo); conditions: recombinant DGKα 1 nM, 100 μM ATP, 18:1 DAG/POPS/octylglucoside micelles, 1 hour at 25° C.; geometric mean; read-out: HTBS DGKa 1X ATP KM IC50
Excerpt: Alternatively, the enzymatic activity of human DGKα was monitored in a biochemical assay in the presence or absence of compounds and using micelles containing 18:1 Diacylglycerol (DAG), 16:0-18:1 PS (POPS) and Octylglucoside as substrate. DGKα activity led to conversion of DAG and ATP to Phosphatidic Acid (PA) and ADP. Levels of ADP were monitored by bioluminescence using the ADP-Glo Kinase Assay (Promega) and were indicative of DGKα activity.
Ten nanoliters of test compound dissolved in DMSO at various concentrations were dispensed into a 384-well low volume nonbinding service white plates (Corning #3824) using a Labcyte Echo instrument. Recombinant DGKα (Carna Biosciences) in assay buffer (5 μL in 50 mM MOPS [3-(N-morpholino) propanesulfonic acid], pH 7.2; 0.0025% Triton X-100; 1 mM dithiothreitol; 5 mM MgCl2, 200 μM ATP) was added to the compound-containing plate and was incubated for 15 minutes at 25° C. A substrate solution (5 μL in 1.7 mM 1,2-dioleoyl-sn-glycerol [18:1 DAG], 13.5 mM 1-palmitoyl-2-oleoyl-sn-glycero-3-phospho-L-serine [16:0-18:1 PS](POPS), 2 μM CaCl2, 100 mM Octylglucoside (OG), 1 mM DTT) (obtained from Carna Biosciences) diluted in DGK ALPHA assay buffer was then added to start the reaction. Final concentrations were 1 nM DGKα, 100 μM ATP, 1 μM calcium chloride, 0.85 mM 1,2-dioleoyl-sn-glycerol (18:1 DAG), 6.75 mM 1-palmitoyl-2-oleoyl-sn-glycero-3-phospho-L-serine (16:0-18:1 PS) (POPS), 1 μM CaCl2), 50 mM Octylglucoside (OG) and 5 mM MgCl2. The reaction mixture was incubated at 25° C. for 1 hour. ADP-Glo Reagent (10 μL, 10 mM Mg added) provided by the kit was added to each well and incubated at 25° C. for 40 minutes. Then, 20 μL of Kinase Detection Reagent was added and incubated at 25° C. for 40 minutes. Luciferase activity of each well was measured via luminescence on an Envision plate reader (PerkinElmer).
Data were normalized based on maximum inhibition (50 μM of kinase inhibitor CU3) and no inhibition (DMSO) controls. Least squares curve fittings were performed using a four-parameter variable slope nonlinear regression model. IC50 was defined as the concentration of compound required to inhibit 50% of maximum activity. IC50 values from multiple experiments were averaged by geometric mean and the standard deviation was calculated.

Sequence of human DGKα (P23743 whole entry): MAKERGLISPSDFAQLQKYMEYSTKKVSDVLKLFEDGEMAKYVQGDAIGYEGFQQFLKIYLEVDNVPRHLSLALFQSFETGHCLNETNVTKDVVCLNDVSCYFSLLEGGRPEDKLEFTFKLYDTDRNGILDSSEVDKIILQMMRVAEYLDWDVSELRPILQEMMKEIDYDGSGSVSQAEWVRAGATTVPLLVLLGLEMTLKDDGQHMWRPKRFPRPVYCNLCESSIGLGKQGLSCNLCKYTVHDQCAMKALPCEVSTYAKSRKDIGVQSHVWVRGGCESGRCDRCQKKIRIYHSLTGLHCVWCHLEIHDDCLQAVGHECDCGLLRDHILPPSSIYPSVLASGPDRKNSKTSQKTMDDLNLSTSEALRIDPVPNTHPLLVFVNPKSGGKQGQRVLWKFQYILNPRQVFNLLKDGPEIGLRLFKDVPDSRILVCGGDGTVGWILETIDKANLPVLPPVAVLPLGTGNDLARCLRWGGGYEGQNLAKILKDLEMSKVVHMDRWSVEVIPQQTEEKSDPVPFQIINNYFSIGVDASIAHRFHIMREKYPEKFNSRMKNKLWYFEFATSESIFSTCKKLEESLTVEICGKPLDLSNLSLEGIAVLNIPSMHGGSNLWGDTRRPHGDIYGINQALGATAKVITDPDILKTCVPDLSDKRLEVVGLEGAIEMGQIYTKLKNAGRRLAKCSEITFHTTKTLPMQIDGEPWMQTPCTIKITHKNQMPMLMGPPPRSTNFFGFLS

Compound | EC50 [1] [nM] | IC50 (human DGKα) [nM]
Fc1cc(C#CC2(C(F)(F)F)CC2)cc(N(CC(F)F)c2nc3nncn3c3cccnc23)c1 [Example 20, N-(2,2-difluoroethyl)-N-(3-fluoro-5-((1-(trifluoromethyl)cyclopropyl)ethynyl)phenyl)pyrido[2,3-e][1,2,4]triazolo[4,3-a]pyrimidin-5-amine] | 2.9 | 71.8
Cc1nnc2nc(N3CCCc4c(C#CC(C)(C)C(F)(F)F)cccc43)c3ncccc3n12 [Example 21, 3-methyl-8-[5-(4,4,4-trifluoro-3,3-dimethyl-but-1-ynyl)-3,4-dihydro-2H-quinolin-1-yl]-2,4,5,7,10-pentazatricyclo[7.4.0.02,6]trideca-1(13),3,5,7,9,11-hexaene] | 12.5 | 73.9
Cc1nnc2nc(N3CCCc4c(C#CC5(C)CC5)cccc43)c3ncccc3n12 [Example 22, 3-methyl-8-[5-[2-(1-methylcyclopropyl)ethynyl]-3,4-dihydro-2H-quinolin-1-yl]-2,4,5,7,10-pentazatricyclo[7.4.0.02,6]trideca-1(13),3,5,7,9,11-hexaene] | 3.26 | 23.2
Cc1nnc2nc(N3CCCc4c(C#CC5(C(F)(F)F)CC5)cccc43)c3ncccc3n12 [Example 23, 3-methyl-8-[5-[2-[1-(trifluoromethyl)cyclopropyl]ethynyl]-3,4-dihydro-2H-quinolin-1-yl]-2,4,5,7,10-pentazatricyclo[7.4.0.02,6]trideca-1(13),3,5,7,9,11-hexaene] | 13.5 | 41.9
CC1(C#Cc2cccc3c2CCCN3c2nc3nncn3c3cccnc23)CC1 [Example 24, 8-[5-[2-(1-methylcyclopropyl)ethynyl]-3,4-dihydro-2H-quinolin-1-yl]-2,4,5,7,10-pentazatricyclo[7.4.0.02,6]trideca-1(13),3,5,7,9,11-hexaene] | 2.77 | 17
FC(F)(F)C1(C#Cc2cccc3c2CCCN3c2nc3nncn3c3cccnc23)CC1 [Example 25, 8-[5-[2-[1-(trifluoromethyl)cyclopropyl]ethynyl]-3,4-dihydro-2H-quinolin-1-yl]-2,4,5,7,10-pentazatricyclo[7.4.0.02,6]trideca-1(13),3,5,7,9,11-hexaene] | 3.08 | 22.6
Cc1nnc2nc(N3CCCc4c(C#CC5(CF)CC5)cccc43)c3ncccc3n12 [Example 26, 5-(5-((1-(fluoromethyl)cyclopropyl)ethynyl)-3,4-dihydroquinolin-1(2H)-yl)-1-methylpyrido[2,3-e][1,2,4]triazolo[4,3-a]pyrimidine] | 8.37 | 21.2
FCC1(C#Cc2cccc3c2CCCN3c2nc3nncn3c3cccnc23)CC1 [Example 27, 5-(5-((1-(fluoromethyl)cyclopropyl)ethynyl)-3,4-dihydroquinolin-1(2H)-yl)pyrido[2,3-e][1,2,4]triazolo[4,3-a]pyrimidine] | 6.11 | 6.83
Cc1nnc2nc(N3CCCc4c(C#CC(C)(C)O)cccc43)c3c(F)cncc3n12 [Example 28, 4-(1-(6-fluoro-1-methylpyrido[4,3-e][1,2,4]triazolo[4,3-a]pyrimidin-5-yl)-1,2,3,4-tetrahydroquinolin-5-yl)-2-methylbut-3-yn-2-ol] | 33.6 | 11.9
Cc1nnc2nc(N3CCCc4c3ccnc4C#CC3(C(C)(F)F)CC3)c3c(F)cncc3n12 [Example 29, 5-(5-((1-(1,1-difluoroethyl)cyclopropyl)ethynyl)-3,4-dihydro-1,6-naphthyridin-1(2H)-yl)-6-fluoro-1-methylpyrido[4,3-e][1,2,4]triazolo[4,3-a]pyrimidine] | 7.24 | 37.7
Cc1nnc2nc(N3CCCc4c3ccnc4C#CC(C)(C)C(F)(F)F)c3c(F)cncc3n12 [Example 30, 6-fluoro-1-methyl-5-(5-(4,4,4-trifluoro-3,3-dimethylbut-1-yn-1-yl)-3,4-dihydro-1,6-naphthyridin-1(2H)-yl)pyrido[4,3-e][1,2,4]triazolo[4,3-a]pyrimidine] | 13.2 | 24.8

Second part, the compound after the results:

EC50 [1] [nM] | IC50 (human DGKα) [nM] | Compound
81.1 | 72.3 | Cc1nnc2nc(N3CCCc4c3ccnc4C#CC(C)(C)C#N)c3c(F)cncc3n12 [Example 31, 4-(1-(6-fluoro-1-methylpyrido[4,3-e][1,2,4]triazolo[4,3-a]pyrimidin-5-yl)-1,2,3,4-tetrahydro-1,6-naphthyridin-5-yl)-2,2-dimethylbut-3-ynenitrile]
8.79 | 12.6 | Cc1nnc2nc(N3CCCc4c3ccnc4C#CC3(C)CC3)c3c(F)cncc3n12 [Example 32, 6-fluoro-1-methyl-5-(5-((1-methylcyclopropyl)ethynyl)-3,4-dihydro-1,6-naphthyridin-1(2H)-yl)pyrido[4,3-e][1,2,4]triazolo[4,3-a]pyrimidine]
5.13 | 22.4 | Cc1nnc2nc(N3CCCc4c3ccnc4C#CC3(C(F)(F)F)CC3)c3c(F)cncc3n12 [Example 33, 6-fluoro-1-methyl-5-(5-((1-(trifluoromethyl)cyclopropyl)ethynyl)-3,4-dihydro-1,6-naphthyridin-1(2H)-yl)pyrido[4,3-e][1,2,4]triazolo[4,3-a]pyrimidine]
3.34 | 42.8 | Cc1nnc2nc(N3CCCc4c(C#CC5(C(C)(F)F)CC5)cncc43)c3c(F)cncc3n12 [Example 34, 5-(5-((1-(1,1-difluoroethyl)cyclopropyl)ethynyl)-3,4-dihydro-1,7-naphthyridin-1(2H)-yl)-6-fluoro-1-methylpyrido[4,3-e][1,2,4]triazolo[4,3-a]pyrimidine]
5.97 | 20.1 | Cc1nnc2nc(N3CCCc4c(C#CC5(C(F)F)CC5)cncc43)c3c(F)cncc3n12 [Example 35, 5-(5-((1-(difluoromethyl)cyclopropyl)ethynyl)-3,4-dihydro-1,7-naphthyridin-1(2H)-yl)-6-fluoro-1-methylpyrido[4,3-e][1,2,4]triazolo[4,3-a]pyrimidine]
8.86 | 40.4 | Cc1nnc2nc(N3CCCc4c(C#CC(C)(C)C(F)(F)F)cncc43)c3c(F)cncc3n12 [Example 36, 6-fluoro-1-methyl-5-(5-(4,4,4-trifluoro-3,3-dimethylbut-1-yn-1-yl)-3,4-dihydro-1,7-naphthyridin-1(2H)-yl)pyrido[4,3-e][1,2,4]triazolo[4,3-a]pyrimidine]
54.9 | 52.9 | Cc1nnc2nc(N3CCCc4c(C#CC(C)(C)C#N)cncc43)c3c(F)cncc3n12 [Example 37, 4-(1-(6-fluoro-1-methylpyrido[4,3-e][1,2,4]triazolo[4,3-a]pyrimidin-5-yl)-1,2,3,4-tetrahydro-1,7-naphthyridin-5-yl)-2,2-dimethylbut-3-ynenitrile]
6.07 | 17.9 | Cc1nnc2nc(N3CCCc4c(C#CC5(C)CC5)cncc43)c3c(F)cncc3n12 [Example 38, 6-fluoro-1-methyl-5-(5-((1-methylcyclopropyl)ethynyl)-3,4-dihydro-1,7-naphthyridin-1(2H)-yl)pyrido[4,3-e][1,2,4]triazolo[4,3-a]pyrimidine]

Source: patent US11926628B2 (Gilead Sciences, Inc., priority 2021, dated 2024)
